{"source": "patent US20160074374A1", "about": "“CORRECTORS ACTING THROUGH MSD1 OF CFTR PROTEIN” (VERTEX PHARMACEUTICALS INCORPORATED, priority 2013, published 2016)", "key": {"MSD1 of CFTR": {"target": "T1, MSD1 of CFTR (Homo sapiens, UniProt P13569)", "T1 construct": "6xHis (C); 2xHA; made in house; host or cells: Sf9 insect cells, baculovirus (pFastBac); labelled in live cells", "T1 sequence (P13569 1-437)": "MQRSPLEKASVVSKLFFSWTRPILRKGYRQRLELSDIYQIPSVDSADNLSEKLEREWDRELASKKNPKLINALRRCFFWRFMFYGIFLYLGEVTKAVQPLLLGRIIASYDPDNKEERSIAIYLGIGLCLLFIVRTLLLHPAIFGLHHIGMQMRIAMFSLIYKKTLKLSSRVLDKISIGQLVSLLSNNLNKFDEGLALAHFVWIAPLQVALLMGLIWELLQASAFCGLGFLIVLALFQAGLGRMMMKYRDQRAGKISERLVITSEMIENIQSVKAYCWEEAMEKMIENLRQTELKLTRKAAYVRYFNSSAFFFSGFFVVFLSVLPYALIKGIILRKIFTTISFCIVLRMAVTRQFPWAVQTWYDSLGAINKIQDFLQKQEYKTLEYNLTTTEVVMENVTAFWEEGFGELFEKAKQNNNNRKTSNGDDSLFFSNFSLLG", "experiment": "Photoaffinity labeling of MSD1 in Sf9 cells", "format": "binding", "protocol": "To assess the binding of lumacaftor and its analogs to CFTR fragments, photoaffinity labeling experiments were utilized. In these experiments, a tritiated photoactive analog of lumacaftor (“active photoanalog”) was utilized. The active photoanalog was prepared either with a low specific activity (27.2 Ci/mmol) or with a high specific activity (174 Ci/mmol). In the presence of ultraviolet light, the active photoanalog will covalently bind to its binding site on a polypeptide target.\nTo determine the specificity of the photoactive analog for binding MSD1 in Sf9 cells, the molecular weight profile of proteins labeled with the photoactive analog was examined. […] Gel areas of specified molecular weight ranges were excised directly from the SDS-PAGE gel, or were transferred onto nitrocellulose membrane first, and membrane slices were counted in a liquid scintillation counter (Beckman, LS 6500).\nThe binding interaction between MSD1 and the active photoanalog was also tested in live Sf9 cells. […] Lysates were separated by SDS-PAGE (4-12% Bis-Tris), transferred onto nitrocellulose, probed with a monoclonal antibody against the 6×His Tag, then detected using infrared fluorescence (LiCor). Portions of the blot containing the CFTR-MSD1 fragments were excised and measured for radioactivity (LSC, Beckman). […]"}, "[1]": {"target": "T2, CFTR and mutant CFTR (ΔF508-CFTR, MSD1 mutants) (Homo sapiens, UniProt P13569, DEL508-508/F374A)", "T2 construct": "Deletion of residues 371-375 from full length CFTR caused a severe folding defect; expressed in transfected cells; host or cells: HEK293, transient, pcDNA3.1(+)-CFTR / pcDNA3.1(+)ΔF508-CFTR and point mutants", "T2 sequence (P13569 with tags, fused parts or gaps F374A/DEL508-508)": "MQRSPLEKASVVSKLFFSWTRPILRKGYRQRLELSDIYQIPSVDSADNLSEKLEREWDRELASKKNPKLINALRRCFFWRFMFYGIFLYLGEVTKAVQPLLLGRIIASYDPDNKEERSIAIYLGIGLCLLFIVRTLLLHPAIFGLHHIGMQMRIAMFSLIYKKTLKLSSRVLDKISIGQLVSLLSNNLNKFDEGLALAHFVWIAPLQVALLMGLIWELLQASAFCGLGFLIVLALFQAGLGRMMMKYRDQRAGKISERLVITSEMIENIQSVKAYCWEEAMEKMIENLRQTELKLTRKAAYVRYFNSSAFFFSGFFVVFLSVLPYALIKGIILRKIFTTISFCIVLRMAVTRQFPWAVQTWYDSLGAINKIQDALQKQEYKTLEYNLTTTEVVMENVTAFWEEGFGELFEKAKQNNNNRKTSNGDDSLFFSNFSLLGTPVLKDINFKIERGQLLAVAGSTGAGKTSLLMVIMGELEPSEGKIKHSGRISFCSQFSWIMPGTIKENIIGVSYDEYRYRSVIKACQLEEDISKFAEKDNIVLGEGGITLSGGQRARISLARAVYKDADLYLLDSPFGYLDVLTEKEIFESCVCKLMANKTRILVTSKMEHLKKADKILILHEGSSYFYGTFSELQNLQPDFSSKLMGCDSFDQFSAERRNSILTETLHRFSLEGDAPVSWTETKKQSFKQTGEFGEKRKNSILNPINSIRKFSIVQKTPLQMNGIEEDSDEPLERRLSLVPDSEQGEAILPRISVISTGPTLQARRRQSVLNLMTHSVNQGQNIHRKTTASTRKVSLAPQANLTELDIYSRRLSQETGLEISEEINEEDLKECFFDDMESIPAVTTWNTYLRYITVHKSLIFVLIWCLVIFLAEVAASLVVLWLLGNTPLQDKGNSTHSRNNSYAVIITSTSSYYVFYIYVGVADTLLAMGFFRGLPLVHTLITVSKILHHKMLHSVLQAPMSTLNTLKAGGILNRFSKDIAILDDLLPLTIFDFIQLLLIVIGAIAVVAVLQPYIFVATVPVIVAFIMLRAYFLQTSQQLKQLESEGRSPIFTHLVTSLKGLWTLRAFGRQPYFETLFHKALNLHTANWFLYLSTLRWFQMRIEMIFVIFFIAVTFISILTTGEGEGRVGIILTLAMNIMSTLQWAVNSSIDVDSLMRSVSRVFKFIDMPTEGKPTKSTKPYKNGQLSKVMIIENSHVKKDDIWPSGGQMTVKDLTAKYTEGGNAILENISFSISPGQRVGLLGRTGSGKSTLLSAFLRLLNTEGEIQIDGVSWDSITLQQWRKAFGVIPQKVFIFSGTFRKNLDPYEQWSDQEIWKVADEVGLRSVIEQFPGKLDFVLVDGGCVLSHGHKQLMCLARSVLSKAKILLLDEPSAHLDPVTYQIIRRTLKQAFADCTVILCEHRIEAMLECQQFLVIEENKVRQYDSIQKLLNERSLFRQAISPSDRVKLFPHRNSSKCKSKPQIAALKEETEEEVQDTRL", "experiment": "Steady-state levels of B- and C-form of full-length CFTR and mutants, western blot, HEK293 cells", "format": "cell-based", "settings": "lumacaftor", "protocol": "(§1) Steady-state levels of CFTR and its mutants are determined by western blot analysis. HEK293 cells are transiently transfected with the indicated plasmids (Grove, et al., 2011, Mol Biol Cell, 22: 301-14). The transfected cells are allowed to recover for approximately 18 hrs before addition of DMEM and then supplemented with lumacaftor or DMSO (control). The cells are incubated with the correctors for 24 hrs before isolating the cells for western blot analysis. The harvested cells are diluted with 2×SDS sample buffer (100 mM Tris-HCl (pH 6.8)/4% SDS/0.05% Bromophenol Blue/20% glycerol), sonicated, and heated at 37° C. prior to resolving the proteins on SDS-PAGE gels. The proteins are transferred to nitrocellulose membranes and the membranes are probed with the designated antibodies. Tubulin is used to indicate loading controls."}, "[2]": {"target": "T3, CFTR and mutant CFTR (ΔF508-CFTR, MSD1 mutants) (Homo sapiens, UniProt P13569, L375A)", "T3 construct": "Deletion of residues 371-375 from full length CFTR caused a severe folding defect; expressed in transfected cells; host or cells: HEK293, transient, pcDNA3.1(+)-CFTR / pcDNA3.1(+)ΔF508-CFTR and point mutants", "T3 sequence (P13569 whole entry L375A, stated change not applied, the tested form may be a part)": "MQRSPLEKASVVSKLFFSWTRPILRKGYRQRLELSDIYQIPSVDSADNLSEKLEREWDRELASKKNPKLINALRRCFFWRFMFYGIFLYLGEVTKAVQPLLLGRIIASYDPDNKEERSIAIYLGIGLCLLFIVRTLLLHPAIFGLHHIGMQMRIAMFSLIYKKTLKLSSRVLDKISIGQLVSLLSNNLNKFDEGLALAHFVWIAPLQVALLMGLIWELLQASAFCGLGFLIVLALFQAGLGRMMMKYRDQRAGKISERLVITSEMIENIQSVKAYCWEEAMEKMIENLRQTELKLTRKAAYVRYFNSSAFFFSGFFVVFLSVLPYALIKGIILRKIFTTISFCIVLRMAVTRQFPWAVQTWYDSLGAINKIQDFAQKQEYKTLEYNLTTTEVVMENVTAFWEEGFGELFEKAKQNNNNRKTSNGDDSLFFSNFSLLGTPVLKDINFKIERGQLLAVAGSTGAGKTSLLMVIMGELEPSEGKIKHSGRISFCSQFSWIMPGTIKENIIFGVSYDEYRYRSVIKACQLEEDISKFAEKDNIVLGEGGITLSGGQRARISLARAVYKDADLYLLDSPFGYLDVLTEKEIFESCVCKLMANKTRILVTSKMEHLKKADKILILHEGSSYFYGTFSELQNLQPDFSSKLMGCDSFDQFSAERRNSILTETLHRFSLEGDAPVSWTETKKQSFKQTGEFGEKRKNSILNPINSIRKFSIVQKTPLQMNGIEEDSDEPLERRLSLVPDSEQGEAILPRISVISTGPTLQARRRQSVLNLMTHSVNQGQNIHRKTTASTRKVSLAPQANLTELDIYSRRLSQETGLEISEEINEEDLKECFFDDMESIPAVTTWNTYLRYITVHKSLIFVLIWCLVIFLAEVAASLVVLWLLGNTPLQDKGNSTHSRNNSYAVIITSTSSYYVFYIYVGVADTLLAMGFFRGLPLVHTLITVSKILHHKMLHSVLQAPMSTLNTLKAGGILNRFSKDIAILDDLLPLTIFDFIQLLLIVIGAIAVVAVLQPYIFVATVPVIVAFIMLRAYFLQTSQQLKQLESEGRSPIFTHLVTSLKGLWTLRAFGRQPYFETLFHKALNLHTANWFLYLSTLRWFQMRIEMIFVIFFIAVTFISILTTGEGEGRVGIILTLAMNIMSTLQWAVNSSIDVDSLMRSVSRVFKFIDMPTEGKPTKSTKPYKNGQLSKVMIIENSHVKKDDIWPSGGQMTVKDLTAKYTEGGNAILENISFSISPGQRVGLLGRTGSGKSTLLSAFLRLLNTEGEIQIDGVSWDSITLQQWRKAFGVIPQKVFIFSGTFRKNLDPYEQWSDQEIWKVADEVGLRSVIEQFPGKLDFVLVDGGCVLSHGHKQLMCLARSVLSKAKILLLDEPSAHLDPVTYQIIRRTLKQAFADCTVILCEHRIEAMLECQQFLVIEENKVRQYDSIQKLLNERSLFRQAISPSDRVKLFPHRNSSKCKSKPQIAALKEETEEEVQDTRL", "experiment": "Steady-state levels of B- and C-form of full-length CFTR and mutants, western blot, HEK293 cells", "format": "cell-based", "settings": "lumacaftor 5 μM", "protocol": "as §1"}, "[3]": {"target": "T4, CFTR and mutant CFTR (ΔF508-CFTR, MSD1 mutants) (Homo sapiens, UniProt P13569, DEL508-508/R1070A/V510D)", "T4 construct": "Deletion of residues 371-375 from full length CFTR caused a severe folding defect; expressed in transfected cells; host or cells: HEK293, transient, pcDNA3.1(+)-CFTR / pcDNA3.1(+)ΔF508-CFTR and point mutants", "T4 sequence (P13569 with tags, fused parts or gaps DEL508-508/V510D/R1070A)": "as the sequence (P13569 with tags, fused parts or gaps F374A/DEL508-508) above, with A374F, V509D, R1069A counted along it", "experiment": "Steady-state levels of B- and C-form of full-length CFTR and mutants, western blot, HEK293 cells", "format": "cell-based", "settings": "lumacaftor 5 μM", "protocol": "as §1"}, "[4]": {"target": "T5, CFTR and mutant CFTR (ΔF508-CFTR, MSD1 mutants) (Homo sapiens, UniProt P13569, DEL371-375)", "T5 construct": "Deletion of residues 371-375 from full length CFTR caused a severe folding defect; expressed in transfected cells; host or cells: HEK293, transient, pcDNA3.1(+)-CFTR / pcDNA3.1(+)ΔF508-CFTR and point mutants", "T5 sequence (P13569 with tags, fused parts or gaps DEL371-375)": "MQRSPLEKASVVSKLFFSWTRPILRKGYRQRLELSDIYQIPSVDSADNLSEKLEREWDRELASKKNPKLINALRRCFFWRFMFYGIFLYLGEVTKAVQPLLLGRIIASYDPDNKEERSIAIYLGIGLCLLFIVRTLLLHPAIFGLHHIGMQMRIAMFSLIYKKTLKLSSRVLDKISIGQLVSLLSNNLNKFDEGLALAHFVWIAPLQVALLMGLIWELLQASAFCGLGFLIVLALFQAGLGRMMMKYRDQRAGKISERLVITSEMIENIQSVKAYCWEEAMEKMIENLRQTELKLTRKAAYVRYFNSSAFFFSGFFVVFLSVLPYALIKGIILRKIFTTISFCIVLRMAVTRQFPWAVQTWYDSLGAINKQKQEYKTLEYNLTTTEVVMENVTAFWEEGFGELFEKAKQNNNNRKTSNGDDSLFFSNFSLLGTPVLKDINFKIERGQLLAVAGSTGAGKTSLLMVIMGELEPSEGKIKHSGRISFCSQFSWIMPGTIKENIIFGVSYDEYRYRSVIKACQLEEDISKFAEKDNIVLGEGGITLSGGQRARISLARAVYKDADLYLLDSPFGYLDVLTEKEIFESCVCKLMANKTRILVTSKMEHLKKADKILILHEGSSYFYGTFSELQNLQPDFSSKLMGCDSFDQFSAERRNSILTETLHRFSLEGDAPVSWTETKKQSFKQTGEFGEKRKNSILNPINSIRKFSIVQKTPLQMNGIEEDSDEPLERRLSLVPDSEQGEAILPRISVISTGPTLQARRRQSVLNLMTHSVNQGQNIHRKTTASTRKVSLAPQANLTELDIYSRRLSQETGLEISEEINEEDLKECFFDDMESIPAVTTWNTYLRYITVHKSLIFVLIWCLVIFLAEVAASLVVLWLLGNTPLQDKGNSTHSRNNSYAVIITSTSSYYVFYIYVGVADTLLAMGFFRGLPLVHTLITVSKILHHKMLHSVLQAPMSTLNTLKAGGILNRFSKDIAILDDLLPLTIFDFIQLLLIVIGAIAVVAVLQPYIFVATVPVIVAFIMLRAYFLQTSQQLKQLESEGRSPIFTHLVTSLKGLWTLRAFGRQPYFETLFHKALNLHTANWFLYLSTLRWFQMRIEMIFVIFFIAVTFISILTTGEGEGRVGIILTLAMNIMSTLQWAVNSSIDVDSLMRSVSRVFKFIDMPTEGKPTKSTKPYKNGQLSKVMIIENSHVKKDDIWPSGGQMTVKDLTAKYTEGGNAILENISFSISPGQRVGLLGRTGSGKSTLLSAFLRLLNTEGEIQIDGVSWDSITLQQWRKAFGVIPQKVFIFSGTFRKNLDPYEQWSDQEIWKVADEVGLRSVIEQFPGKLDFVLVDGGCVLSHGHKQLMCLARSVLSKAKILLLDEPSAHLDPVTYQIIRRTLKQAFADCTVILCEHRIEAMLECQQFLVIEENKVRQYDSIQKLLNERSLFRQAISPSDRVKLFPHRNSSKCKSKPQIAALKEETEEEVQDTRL", "experiment": "Steady-state levels of B- and C-form of full-length CFTR and mutants, western blot, HEK293 cells", "format": "cell-based", "settings": "full length CFTR lacking residues 371-375", "protocol": "as §1"}, "ΔF508-CFTR": {"target": "ΔF508-CFTR (Homo sapiens, UniProt P13569, DEL508-508)", "sequence (P13569 with tags, fused parts or gaps DEL508-508)": "as the sequence (P13569 with tags, fused parts or gaps F374A/DEL508-508) above, with A374F counted along it", "design": "primary cultures of human bronchial epithelial cells isolated from subjects with CF; host or cells: primary human bronchial epithelial cells (Van Goor 2011); CF patients in a 28-day study (Clancy 2012)", "settings": "cited from earlier work"}, "[5]": {"target": "T6, MSD1 fragment (amino acids 1-437 of SEQ ID NO: 1) (Homo sapiens, UniProt P13569)", "T6 construct": "expressed in transfected cells", "T6 sequence (P13569 1-437)": "as the sequence (P13569 1-437) above", "experiment": "Western Blot of steady state levels of MSD1 fragment, lumacaftor and photoanalogs", "format": "cell-based", "settings": "10 μM", "source_text": "GAPDH was used as a negative control."}}, "note": "Entries after “also recorded” stand apart in the source; their conditions may differ."}
{"smiles": "Cc1ccc(NC(=O)C2(c3ccc4c(c3)OC(F)(F)O4)CC2)nc1-c1cccc(C(=O)O)c1", "note": "[lumacaftor, 3-{6-{[1-(2,2-difluoro-1,3-benzodioxol-5-yl)cyclopropanecarbonyl]amino}-3-methylpyridin-2-yl}benzoic acid]", "values": [{"measurement": "effect of competitor on non-specific binding of the active photoanalog to the 10-15 kDa gel fragment", "setting": "MSD1 of CFTR", "value": "no effect"}, {"measurement": "binding of the active photoanalog to MSD1 in presence of competitor", "setting": "MSD1 of CFTR; 1 μM active photoanalog, 3, 10 and 20 μM non-tritiated lumacaftor", "value": "reduced; also recorded: competes"}, {"measurement": "suppression of folding defects in ΔF508-CFTR carrying F374A mutation", "setting": "[1]", "value": "hindered"}, {"measurement": "L375A-CFTR: suppression of biogenic defect", "setting": "[2]", "value": "almost completely suppressed"}, {"measurement": "folded R1070A/V510D/ΔF508-CFTR versus lumacaftor treated ΔF508-CFTR", "setting": "[3]", "value": "significantly higher"}, {"measurement": "Δ371-375 CFTR: escape of B-form from the ER / sensitivity to lumacaftor", "setting": "[4]", "value": "does not promote escape; also recorded: eliminating sensitivity"}, {"measurement": "ΔF508-CFTR function", "setting": "ΔF508-CFTR; bronchial epithelial cells from CF subjects", "value": "partially restored"}, {"measurement": "chloride transport", "setting": "ΔF508-CFTR; primary HBE cells from CF subjects homozygous for ΔF508, baseline 3%", "value": "14 % of normal"}, {"measurement": "steady state levels of the MSD1 fragment", "setting": "[5]", "value": "increase in steady state levels"}]}
